Laboratory results from PubChem BioAssay (NCI).
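Compound exposure: 48 hours, 5 concentrations, 96-well plates. At the TGI there is no net growth.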

Test system: P388/ADR leukemia
Assay: NCI tumour cell line growth inhibition, 48 h

SMILES: CC[C@@]1(O)C(=O)OCc2c1cc1n(c2=O)Cc2cc3cc(O)ccc3nc2-1
- TGI: 1030 nM
